Data published in US20100280040A1 (KAOHSIUNG MEDICAL UNIVERSITY, priority 2009, published 2010).
“And” between values parts separate entries of the source, which are not always exact repeats. Equal entries are not always repeated. Where two headings read alike, the source gives them in different places. Marks after values point to notes of the source that are not given here.

Assays:
[1] = tested on: rat tracheal smooth muscle cells (TSMCs); assay: MTT assay on rat tracheal smooth muscle cells; assay type: cell-based, Wistar rat; details: for cytotoxicity on rat TSMCs: 0.001 to 100 μM, 24 hours, MTT
Experimental: Tracheal tissue of Wistar rat (200 g to 250 g) was aseptically obtained and connective tissue around the tracheal tissue was removed. […] Supernatant was discarded after centrifugation, and cells were resuspended in 10 ml fresh medium B and cultured on 10 cm cull culture plate to proceed the subsequent experiments. The third to sixth generations of cells were used in the following experiments. Cell concentration was adjusted to 10^4 cells/ml by using a cell counter. Ten thousand cells (1 ml) were inoculated in 24-well culture plate for 24 hours, and cells were attached thereon. Medium B then was added to culture cells for another 24 hours. Subsequently, different concentrations of drugs were added into wells for continuously incubating for 24 hours in low-oxygen incubator. MTT (methylhiazolyldiphenyl-tetrazolium bromide, 100 μl, 5 mg/ml) was added into the wells for darkly reacted for 3 hours at 37° C. Isopropanol of 500 μl was added to solve the […], formazan, after MTT was withdrawn. After 10 minutes, the supernatant ([…]) was transferred to the new 96-well culture plate to determine the absorbance at 540 nm (OD540) and 630 nm (OD630). The effect of drug on cellular growth was evaluated by the value of “OD540-OD630”.

[2] = Pharmacokinetic analysis of MSC in male ICR mice (plasma MSC by LC-MS/MS); assay type: in vivo; details: for Maximum mean plasma concentration of MSC / Minimum mean plasma concentration of MSC / Mean plasma concentration of MSC: ICR mice; for Maximum mean plasma concentration of MSC: 2 min; for Mean plasma concentration of MSC: 2 hours
[3] = Pharmacokinetic analysis of Pulmodil in male SD rats (plasma MSC by LC-MS/MS); assay type: in vivo, male Sprague-Dawley (SD) rats; details: for Maximum mean plasma concentration of MSC / Minimum mean plasma concentration of MSC / Mean plasma concentration of MSC: SD rats
[4] = Mean plasma concentration of MSC after different dosage forms of Pulmodil in SD rats (3 groups, 8 rats per group); assay type: in vivo
Source text: First, SD rats were divided into 3 groups, 8 rats per group.

[5] = for Maximum mean plasma concentration of MSC / Minimum mean plasma concentration of MSC: CD-1 (Crl) mice; for Maximum mean plasma concentration of MSC: 2 min
Experimental: These pharmaceutical solutions were vortexed and sonicated to be fully dissolved to accomplish the preparation of drugs for i.v. administration.
Male Sprague-Dawley (SD) rats (body weight: 250˜292 g) and male CD-1 (Crl) mice (body weight: 23˜25 g) were purchased from BioLasco Taiwan Co., Ltd., Taiwan, and male ICR mice (body weight: 23˜25 g) were provided from MDS Pharma Services (King of Prussia, Pa., U.S.A.). […] Rats and mice were fasted at least 16 hours prior to oral administration.
Regarding CD-1 (Crl) mice and ICR mice, blood samples were collected by cardiac puncture post i.v. administration for 0, 2, 5, 15, 30 minutes, 1, 1.5, 2, 4, 6, 9, 24 and 27 hours (a total of 13 sampling time points). Blood samples of mice were collected by cardiac puncture before oral administration. Blood samples of three mice were collected at each time point by cardiac puncture post oral administration for 15, 30 minutes, 1, 1.5, 2, 4, 6, 9, 24 and 27 hours (a total of 11 sampling time points). Blood sample (0.5˜0.7 ml) collected by cardiac puncture was placed in a 1.5-ml Eppendorf microcentrifuge tube containing 5 μl of anti-coagulant heparin sodium (5,000 I.U./ml), followed by centrifugation at 12,000 rpm at 4° C. for 10 minutes. The plasma fraction was transferred to a clean microcentrifuge tube and stored at −70° C.
Plasma sample was mixed with acetonitrile and centrifuged, and the supernatant was injected onto an LC column. The pharmacokinetic parameters were calculated from mean plasma concentration by WinNonlin Standard program (version 3.1, Pharsight Corp.).

[6] = MSC single i.v. 2.0 mg/kg, male ICR mice
[7] = MSC single oral 20.0 mg/kg, male ICR mice
[8] = Pulmodil single i.v. 2.0 mg/kg, male SD rats
[9] = Pulmodil single oral 18.3 mg/kg, male SD rats
[10] = Pulmodil single sublingual 3.4 mg/kg, male SD rats
[11] = Pulmodil-1 single i.v. 2.0 mg/kg, male CD-1 (Crl) mice
[12] = Pulmodil-1 single oral 20.0 mg/kg, male CD-1 (Crl) mice

Cn1c(=O)c2c(ncn2CCN2CCN(c3ccccc3Cl)CC2)n(C)c1=O [MSC]
cytotoxicity on rat TSMCs [1]: did not show cytotoxicity
Maximum mean plasma concentration of MSC ([2]; MSC i.v. 2.0 mg/kg, 2 mg/kg): 447.76 ± 50.30 ng/mL and 447.76 ng/mL
Minimum mean plasma concentration of MSC ([2]; MSC i.v. 2.0 mg/kg, 24 hr): 0.39 ng/mL
Mean plasma concentration of MSC ([2]; MSC i.v.): 4.82 ± 1.98 ng/mL
Maximum mean plasma concentration of MSC ([2]; MSC oral 20.0 mg/kg, 20 mg/kg): 205.92 ± 56.94 ng/mL and 205.92 ng/mL
Minimum mean plasma concentration of MSC ([2]; MSC oral 20.0 mg/kg, 9 hr, 20 mg/kg): 3.74 ± 1.62 ng/mL and 3.74 ng/mL
Mean plasma concentration of MSC ([2]; MSC oral): 94.26 ± 40.36 ng/mL
AUC(0-inf) [2, 6]: 236.6 ng·h/mL
C(0) [2, 6]: 515.8 ng/mL
Cl [2, 6]: 140.9 mL/min/kg
MRT [2, 6]: 120 min
Vss [2, 6]: 17.2 L/kg
Vz [2, 6]: 79.0 L/kg
t1/2 ([2]; MSC single i.v. 2.0 mg/kg, male ICR mice, determined between 9 and 24 hours): 6.5** hr
AUC(0-inf) [2, 7]: 462.5 ng·h/mL
Bioavailability [2, 7]: 19.5%
MAT (MRTPO − MRTIV) [2, 7]: 48 min
MRT [2, 7]: 168 min
Tmax [2, 7]: 15 min
Cmax ([2]; MSC single oral 20.0 mg/kg, male ICR mice, 20 mg/kg): 205.9 ng/mL
t1/2 ([2]; MSC single oral 20.0 mg/kg, male ICR mice, determined between 4 to 9 hours): 1.2** hr

Cl.Cn1c(=O)c2c(ncn2CCN2CCN(c3ccccc3Cl)CC2)n(C)c1=O [Pulmodil, 7-[2-[4-(2-chlorobenzene)piperazinyl]ethyl]-1,3-dimethylxanthine.HCl]
cytotoxicity on rat TSMCs [1]: did not show cytotoxicity
cell survival rate ([1]; high concentrations (10 and 100 μM), rat TSMCs): ~100%
Maximum mean plasma concentration of MSC ([3]; Pulmodil i.v. 2.0 mg/kg, 2 min, 2 mg/kg): 1263.1 ± 181.4 ng/mL and 1263.1 ng/mL
Minimum mean plasma concentration of MSC ([3]; Pulmodil i.v. 2.0 mg/kg, 6 hr, 2 mg/kg): 0.7 ± 0.3 ng/mL and 0.7 ng/mL
Maximum mean plasma concentration of MSC ([3]; Pulmodil oral 20 mg/kg, 5 min): 1294.1 ng/mL
Minimum mean plasma concentration of MSC ([3]; Pulmodil oral 20 mg/kg, 9 hr): 5.9 ng/mL
Mean plasma concentration of MSC ([3]; Pulmodil oral 20 mg/kg, 24 hr (text: 24- and 27-hour), 20 mg/kg): 0.2 ± 0.1 ng/mL and 0.2 ng/mL
Mean plasma concentration of MSC ([3]; Pulmodil oral 20 mg/kg, within 2 minutes): 879.7 ng/mL
AUC(0-inf) [3, 8]: 608 ng·h/mL
Cl [3, 8]: 51.7 mL/min/kg
MRT [3, 8]: 36 min
Vss [3, 8]: 1.8 L/kg
Vz [3, 8]: 3.4 L/kg
t1/2 [3, 8]: 48 min
AUC(0-inf) [3, 9]: 1142 ng·h/mL
Cmax [3, 9]: 1390 ng/mL
MAT (MRTPO − MRTIV) [3, 9]: 66 min
MRT [3, 9]: 102 min
Tmax [3, 9]: 6 min
t1/2 [3, 9]: 198 min
AUC(0-inf) [3, 10]: 42 ng·h/mL
Bioavailability [3, 10]: 3.7%
Cmax [3, 10]: 27 ng/mL
MAT (MRTSL − MRTIV) [3, 10]: 108 min
MRT [3, 10]: 144 min
Tmax [3, 10]: 6 min
t1/2 [3, 10]: 138 min
Maximum mean plasma concentration of MSC ([3]; Pulmodil sublingual 3.6 mg/kg, 10 min): 25.9 ± 5.5 ng/mL and 25.9 ng/mL
Minimum mean plasma concentration of MSC ([3]; Pulmodil sublingual 3.6 mg/kg, 9 hr): 0.7 ng/mL
Mean plasma concentration of MSC ([3]; Pulmodil sublingual 3.6 mg/kg, within 2 minutes): 22.5 ± 4.1 ng/mL
Bioavailability ([3]; route not stated, given as fraction): 0.2
highest mean plasma concentration of MSC ([4]; Pulmodil i.v. 2.0 mg/kg, 2 minutes): 1263.12 ± 181.44 ng/mL
highest mean plasma concentration of MSC ([4]; Pulmodil i.v. 2.0 mg/kg, 5 minutes): 1171.077 ± 222.16 ng/mL
highest mean plasma concentration of MSC ([4]; Pulmodil oral 20 mg/kg, 5 minutes): 954.32 ± 332.81 ng/mL
highest mean plasma concentration of MSC ([4]; Pulmodil oral 20 mg/kg, 10 minutes): 806.85 ± 160.05 ng/mL
highest mean plasma concentration of MSC ([4]; Pulmodil sublingual 3.6 mg/kg, 2 minutes): 22.48 ± 4.09 ng/mL
highest mean plasma concentration of MSC ([4]; Pulmodil sublingual 3.6 mg/kg, 30 minutes): 18.24 ± 5.70 ng/mL
Cmax [5, 11]: 1785.0 ng/mL

Cn1c(=O)c2c(ncn2CCN2CCN(c3ccccc3Cl)CC2)n(C)c1=O.O=C(O)CC(O)(CC(=O)O)C(=O)O [Pulmodil-1, 7-[2-[4-(2-chlorobenzene)piperazinyl]ethyl]-1,3-dimethylxanthine.citric acid]
cytotoxicity on rat TSMCs [1]: did not show cytotoxicity
Maximum mean plasma concentration of MSC ([5]; Pulmodil-1 i.v. 2.0 mg/kg, 2 mg/kg): 1425.4 ± 138.2 ng/mL and 1425.4 ng/mL
Minimum mean plasma concentration of MSC ([5]; Pulmodil-1 i.v. 2.0 mg/kg, 2 hr, 2 mg/kg): 2.7 ± 2.2 ng/mL and 2.7 ng/mL
Maximum mean plasma concentration of MSC ([5]; Pulmodil-1 oral 20.0 mg/kg, 20 mg/kg): 683.2 ± 187.5 ng/mL and 683.2 ng/mL
Minimum mean plasma concentration of MSC ([5]; Pulmodil-1 oral 20.0 mg/kg, 4 hr): 11.9 ng/mL
AUC(0-inf) [5, 11]: 371.3 ng·h/mL
Cl [5, 11]: 90 mL/min/kg
Cmax [5, 11]: 1785.0 ng/mL
Vss [5, 11]: 1.4 L/kg
Vz [5, 11]: 2.0 L/kg
t1/2 ([5]; Pulmodil-1 single i.v. 2.0 mg/kg, male CD-1 (Crl) mice, determined between 0.5 and 2 hours): 0.3 h
AUC(0-inf) [5, 12]: 379.3 ng·h/mL
Cmax [5, 12]: 683.0 ng/mL
MAT (MRTPO − MRTIV) [5, 12]: 42 min
Tmax [5, 12]: 18 min
Bioavailability ([5]; Pulmodil-1 single oral 20.0 mg/kg, male CD-1 (Crl) mice, 20 mg/kg): 10% and 10.2%
t1/2 ([5]; Pulmodil-1 single oral 20.0 mg/kg, male CD-1 (Crl) mice, determined between 0.5 to 4 hours): 1.0* hr
